Reference: paper PMC3722118, “Hellebrin and its aglycone form hellebrigenin display similar in vitro growth inhibitory effects in cancer cells and binding profiles to the alpha subunits of the Na^+/K^+-ATPase” (Molecular Cancer, 2013)
Read-outs that look alike come from different tables or passages of the source.

Key:
[1] = tested on: A549 NSCLC cells; assay: MTT colorimetric in vitro growth inhibition assay; format: cell-based, human; settings: Homo sapiens, A549, 72 h, read-out: IC50 (nM) A549
Source text: (§1) The histological types and origins of the eight human cancer cell lines that were used for the MTT colorimetric assay are detailed in the legend of Table 1. Two mouse cancer cell lines were also used, the CT26.WT colon cancer cell line (ATCC code CRL-2638) and the B16F10 melanoma cell line (ATCC code CRL-6475). Both cell lines were obtained from the American Type Culture Collection (ATCC, Manassas, VA). A control cell line (human NHDF fibroblasts) was obtained from PromoCell (code c-12300; Heidelberg, Germany). The cell lines detailed in Figure 2A are a generous gift from the National Cancer Institute (NCI, Bethesda, USA) to Steven Karlish’s lab.
(§2) The cancer cells were cultured in RPMI (Lonza, Verviers, Belgium) medium supplemented with 10% heat-inactivated fetal calf serum (Lonza). All culture media were supplemented with 4 mM glutamine, 100 μg/mL gentamicin, 200 U/mL penicillin and 200 μg/mL streptomycin (Lonza). The NHDF fibroblasts were cultured in Lonza medium cc3132 KT FGM-2 BulletKit.
(§3) The overall growth level of the human cancer cell lines was determined using a colorimetric MTT (3-(4,5-dimethylthiazol-2yl)-2,5-diphenyltetrazolium bromide, Sigma, Belgium) assay as detailed previously. Briefly, this test measures the number of metabolically active (thus living) cells that are able to transform the yellow MTT into the blue formazan dye via a mitochondrial reduction involving succinate dehydrogenase. The amount of formazan obtained at the end of the experiment (measured by spectrophotometry) is directly proportional to the number of living cells. The determination of the optical density in the control compared to the treated cells therefore enables quantitative measurements of the effects of compounds on the growth of normal as well as cancer cells in vitro.
(§4) Each experimental condition was performed in six replicates.

[2] = tested on: HT-29 colon cancer cells; assay: MTT colorimetric in vitro growth inhibition assay; format: cell-based, human; settings: Homo sapiens, HT-29, 72 h, read-out: IC50 (nM) HT-29
Source text: as §1, §2, §3, §4

[3] = tested on: Hs683 glioma cells; assay: MTT colorimetric in vitro growth inhibition assay; format: cell-based, human; settings: Homo sapiens, Hs 683, 72 h, read-out: IC50 (nM) Hs683
Source text: as §1, §2, §3, §4

[4] = tested on: MCF-7 breast cancer cells; assay: MTT colorimetric in vitro growth inhibition assay; format: cell-based, human; settings: Homo sapiens, MCF7, 72 h, read-out: IC50 (nM) MCF-7
Source text: as §1, §2, §3, §4

[5] = tested on: PC-3 prostate cancer cells; assay: MTT colorimetric in vitro growth inhibition assay; format: cell-based, human; settings: Homo sapiens, 72 h, read-out: IC50 (nM) PC-3
Source text: as §1, §2, §3, §4

[6] = tested on: SKMEL-28 melanoma cells; assay: MTT colorimetric in vitro growth inhibition assay; format: cell-based, human; settings: Homo sapiens, SK-MEL-28, 72 h, read-out: IC50 (nM) SKMEL-28
Source text: as §1, §2, §3, §4

[7] = tested on: T98G glioma cells; assay: MTT colorimetric in vitro growth inhibition assay; format: cell-based, human; settings: Homo sapiens, T98G, 72 h, read-out: IC50 (nM) T98G
Source text: as §1, §2, §3, §4

[8] = tested on: U373 glioma cells; assay: MTT colorimetric in vitro growth inhibition assay; format: cell-based, human; settings: Homo sapiens, U373 MG, 72 h, read-out: IC50 (nM) U373
Source text: as §1, §2, §3, §4

[9] = tested on: human cancer cells (A549, U373, Hs683, T98G, MCF-7, SKMEL-28, PC-3, HT-29); assay: MTT growth inhibition, mean over the eight human cancer cell lines; format: cell-based; settings: 72 h, read-out: IC50 (nM) Mean ± SEM
Source text: as §1, §2, §3, §4

[10] = tested on: HT-29 colon cancer cells; assay: O2 consumption rate (MitoXpress assay); format: cell-based, human; settings: compounds at their IC50 (MTT), 24 h
Procedure: For enzymatic determination of lactate production, confluent tumor cells were incubated with 10 mM glucose for 24 hours. Culture medium was then filtered through centrifugation columns with a 10 KDa cutoff, and L-lactate concentrations were determined on an ISCUSflex analyzer (CMA Microdialysis AB, Solna, Sweden). O2 consumption was determined using the MitoXpress assay according to the manufacturer’s instructions (LuxCell Biosciences, Cork, Ireland). Briefly, after adding the oxygen probe to tumor cells cultured for 24 hours in 96-well microplates with or without the tested compounds, the wells were sealed with mineral oil, and respiration was evaluated using time-resolved fluorescent plate readers. Under these conditions, O2 depletion was translated into an increase in probe phosphorescence signal, and the slope of this signal was used to derive the O2 consumption rate.
Figure 6 Metabolic profiling of human HT29 colon cancer cells treated with cardiotonic steroids. A: Extracellular lactate concentrations and B: O2 consumption rates in HT29 cancer cells treated with the indicated compounds at their IC50in vitro growth inhibitory concentrations (see Table 1). The data (mean ± SEM from triplicates) are expressed in mM lactate accumulated in the extracellular medium after 24 hours and arbitrary units derived from time-resolved fluorescent signal.min^-1.

[11] = molecular target: Rodent NaK; set-up: method as in PMID 17706876; settings: read-out: Ki for inhibition of activity, rodent NaK; cited from earlier work
[12] = molecular target: human NaK; set-up: method as in PMID 17706876; settings: read-out: Ki for inhibition of activity, human NaK; cited from earlier work
[13] = tested on: NHDF fibroblasts; assay: MTT growth inhibition in non-cancerous control cell line; format: cell-based; settings: NHDF, normal human fibroblasts, read-out: in vitro growth inhibitory effects (IC50) in NHDF fibroblasts
Source text: as §1, §2, §3, §4

[14] = tested on: B16F10 melanoma cells; assay: MTT growth inhibition in mouse cancer cells; format: cell-based; settings: B16-F10; mouse cancer cell line; read-out: IC50 growth inhibitory concentration in B16F10 melanoma cells
Source text: as §1
(§5) The cancer cells were cultured in RPMI (Lonza, Verviers, Belgium) medium supplemented with 10% heat-inactivated fetal calf serum (Lonza). […]
as §3, with “Briefly, this test measures the number of metabolically active (thus living) cells that are able to transform the yellow MTT into the blue formazan dye via a mitochondrial reduction involving succinate dehydrogenase.” left out, “vitro. […]” for “vitro.”

[15] = tested on: CT26 colon cancer cells; assay: MTT growth inhibition in mouse cancer cells; format: cell-based; settings: mouse cancer cell line, read-out: IC50 growth inhibitory concentration in CT26 colon cancer cells
Source text: as §1, §5
as §3, with “Briefly, this test measures the number of metabolically active (thus living) cells that are able to transform the yellow MTT into the blue formazan dye via a mitochondrial reduction involving succinate dehydrogenase.” left out, “vitro. […]” for “vitro.”

[16] = molecular target: T1, human α1β1 NaK complex (Homo sapiens, UniProt P05023); assay: 3H-ouabain competitive displacement on P. pastoris membranes; format: binding; settings: 3H-ouabain displacement, three independent experiments; read-out: Affinity (nM) α-1 (KD ± SEM)
T1 construct: made in house; host or cells: Pichia pastoris strain SMD1165 (membranes)
Procedure: (§6) K0.5 was calculated using a one site inhibition model: B/BCG=0 = K0.5/([CG] + K0.5). […] Binding of each cardiac glycoside was estimated in 3 separate experiments.
(§7) Average KD or Ki values ± SEM for each isoform were calculated. Statistical significance was calculated by the unpaired Students t-test. P values <0.05 were considered significant.

[17] = molecular target: T2, human α2β1 NaK complex (Homo sapiens, UniProt P50993); assay: as above; format: binding
T2 construct: made in house; host or cells: Pichia pastoris strain SMD1165 (membranes)
Procedure: as §6, §7

[18] = molecular target: T3, human α3β1 NaK complex (Homo sapiens, UniProt P13637); assay: as above; format: binding
T3 construct: made in house; host or cells: Pichia pastoris strain SMD1165 (membranes)
Procedure: as §6, §7

[19] = three days of culture, * three independent experiments, ** one experiment, six replicates

Structure (SMILES): C[C@@H]1O[C@@H](O[C@H]2C[C@@H](O)[C@]3(CO)[C@H]4[C@H](O)C[C@]5(C)[C@@H](C6=CC(=O)OC6)CC[C@]5(O)[C@@H]4CC[C@]3(O)C2)[C@H](O)[C@H](O)[C@H]1O [Ouabain]
- IC50 [1, 19]: 37 ± 2 nM
- IC50 [2, 19]: 84 ± 8 nM
- IC50 [3, 19]: 34 ± 3 nM
- IC50 [4, 19]: 100 ± 17 nM
- IC50 [5, 19]: 63 ± 10 nM
- IC50 [6, 19]: 83 ± 13 nM
- IC50 [7, 19]: 80 ± 3 nM
- IC50 [8, 19]: 78 ± 1 nM
- IC50 ([9]; mean over eight human cancer cell lines, three days of culture): 70 ± 8 nM
- O2 consumption rate (cell respiration) [10]: significantly reduced
- Ki [11]: 100000 nM
- Ki [12]: 100 nM

Structure (SMILES): C[C@@H]1O[C@@H](O[C@H]2CC[C@@]3(C)[C@H](CC[C@@H]4[C@@H]3[C@H](O)C[C@]3(C)[C@@H](c5ccc(=O)oc5)CC[C@]43O)C2)[C@H](O)[C@H](O)[C@H]1O [Gamabufotalin-rhamnoside]
- IC50 [1]: 3 ± 1 nM
- IC50 [2]: 8 ± 1 nM
- IC50 [3]: 4 ± 1 nM
- IC50 [4]: 17 ± 5 nM
- IC50 [5]: 6 ± 1 nM
- IC50 [6]: 18 ± 7 nM
- IC50 [7]: 7 ± 1 nM
- IC50 [8]: 6 ± 2 nM
- IC50 ([9]; Homo sapiens): 9 ± 2 nM
- IC50 [13]: 1840 nM
- IC50 [14]: 700 nM
- IC50 [15]: 900 nM
- Kd [16]: 30 ± 7 nM
- Kd ([17]; 3H-ouabain displacement, three independent experiments, read-out: Affinity (nM) α-2 (KD ± SEM)): 36 ± 10 nM
- Selectivity α-1 / α-2 ([17]; ratio of KD α-1 to KD α-2): 0.8
- Kd ([18]; 3H-ouabain displacement, three independent experiments, read-out: Affinity (nM) α-3 (KD ± SEM)): 17 ± 2 nM
- Selectivity α-1 / α-3 ([18]; ratio of KD α-1 to KD α-3): 1.8
- O2 consumption rate (cell respiration) [10]: significantly reduced
